# Measurements reported in ChEMBL document CHEMBL4184156, “Repurposing Hsp90 inhibitors as antibiotics targeting histidine kinases” (Bioorg Med Chem Lett, 2017).
# The source made the active and inactive calls. The calls are words filed in the database; no cut-off is given here.
# Columns and labels:
# [1] = target: Cell cycle histidine kinase CckA (Caulobacter vibrioides, UniProt Q9X688); experiment: Inhibition of recombinant Caulobacter vibrioides cell cycle histidine kinase CckA deltaTM mutant DHp domain (70 to 691 residues) expressed in Escherichia coli in presence of varying levels of ATP measured every 60 secs for 2 hrs by PK/LDH enzyme coupled assay
# [2] = Hemolytic activity against sheep RBC at 0.5 mM after 30 mins relative to control; format: ADME, cell-based, Ovis aries, Erythrocyte; details: sheep red blood cells (erythrocytes), read-out: Activity
# Escherichia coli = experiment: Antibacterial activity against Escherichia coli DC2 after 24 hrs by broth dilution method; format: functional; details: DC2, 24 h
# [3] = target: T1, Virulence sensor histidine kinase PhoQ (Salmonella typhimurium (strain LT2 / SGSC1412 / ATCC 700720)) (UniProt P0DM80); experiment: Inhibition of recombinant Salmonella typhimurium N-terminal His6-SUMO-tagged DHp-catalytic domain PhoQ (257 to 487 residues) autophosphorylation expressed in Escherichia coli BL21(DE3) at 500 uM preincubated for 10 mins followed by [gamma-32P]-ATP addition after 30 mins by phosphotransferase dot blot assay relative to control; set-up: scale not given: the % may be the effect or the level left; details: Salmonella enterica subsp. enterica serovar Typhimurium
# T1 sequence (whole entry): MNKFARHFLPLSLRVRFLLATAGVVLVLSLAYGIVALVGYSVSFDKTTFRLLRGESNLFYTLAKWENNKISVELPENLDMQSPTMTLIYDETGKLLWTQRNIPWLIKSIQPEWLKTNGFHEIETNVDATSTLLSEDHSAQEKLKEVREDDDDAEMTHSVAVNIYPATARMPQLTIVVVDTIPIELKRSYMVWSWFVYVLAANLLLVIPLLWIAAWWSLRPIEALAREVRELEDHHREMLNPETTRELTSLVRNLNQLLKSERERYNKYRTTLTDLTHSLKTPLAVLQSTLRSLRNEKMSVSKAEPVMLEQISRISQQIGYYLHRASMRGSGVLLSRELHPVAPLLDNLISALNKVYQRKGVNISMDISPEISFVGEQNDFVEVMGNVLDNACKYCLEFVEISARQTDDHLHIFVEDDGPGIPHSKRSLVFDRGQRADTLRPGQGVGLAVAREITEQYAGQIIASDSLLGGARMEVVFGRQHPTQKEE
# [4] = target: T2, Cell cycle histidine kinase CckA (Caulobacter vibrioides) (UniProt Q9X688); experiment: Binding affinity to recombinant Caulobacter vibrioides cell cycle histidine kinase CckA delta 3 mutant DHp domain (190 to 562 residues) expressed in Escherichia coli assessed as change in metlting temperature at 30 uM after 2 mins by SYPRO orange dye based DSF assay
# T2 sequence (whole entry): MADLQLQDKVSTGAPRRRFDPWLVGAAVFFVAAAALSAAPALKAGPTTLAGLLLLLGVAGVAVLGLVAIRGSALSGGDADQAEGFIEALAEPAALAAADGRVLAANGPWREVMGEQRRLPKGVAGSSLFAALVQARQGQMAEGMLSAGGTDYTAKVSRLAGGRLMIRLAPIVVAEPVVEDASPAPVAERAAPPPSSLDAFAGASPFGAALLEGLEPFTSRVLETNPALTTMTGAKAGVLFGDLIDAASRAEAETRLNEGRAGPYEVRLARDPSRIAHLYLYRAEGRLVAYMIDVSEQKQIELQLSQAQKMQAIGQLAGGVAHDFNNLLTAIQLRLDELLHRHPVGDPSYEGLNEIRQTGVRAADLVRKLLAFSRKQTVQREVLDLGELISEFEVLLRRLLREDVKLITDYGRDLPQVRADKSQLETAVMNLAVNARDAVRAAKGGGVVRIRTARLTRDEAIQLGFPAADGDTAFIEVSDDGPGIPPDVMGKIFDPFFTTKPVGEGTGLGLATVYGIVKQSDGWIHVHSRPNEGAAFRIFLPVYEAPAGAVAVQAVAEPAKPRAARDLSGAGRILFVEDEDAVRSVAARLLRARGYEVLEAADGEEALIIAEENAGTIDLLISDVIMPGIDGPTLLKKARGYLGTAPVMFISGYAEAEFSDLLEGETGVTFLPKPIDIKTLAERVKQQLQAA
# [5] = target: T3, Histidine protein kinase DivJ (Caulobacter vibrioides (strain ATCC 19089 / CB15) (Caulobactercrescentus)) (UniProt Q03228); experiment: Inhibition of recombinant Caulobacter vibrioides N-terminal His6-tagged DHp-catalytic domain DivJ (188 to 585 residues) autophosphorylation expressed in Escherichia coli BL21(DE3) at 500 uM preincubated for 10 mins followed by [gamma-32P]-ATP addition after 15 mins by phosphotransferase dot blot assay relative to control; set-up: scale not given: the % may be the effect or the level left
# T3 sequence (whole entry): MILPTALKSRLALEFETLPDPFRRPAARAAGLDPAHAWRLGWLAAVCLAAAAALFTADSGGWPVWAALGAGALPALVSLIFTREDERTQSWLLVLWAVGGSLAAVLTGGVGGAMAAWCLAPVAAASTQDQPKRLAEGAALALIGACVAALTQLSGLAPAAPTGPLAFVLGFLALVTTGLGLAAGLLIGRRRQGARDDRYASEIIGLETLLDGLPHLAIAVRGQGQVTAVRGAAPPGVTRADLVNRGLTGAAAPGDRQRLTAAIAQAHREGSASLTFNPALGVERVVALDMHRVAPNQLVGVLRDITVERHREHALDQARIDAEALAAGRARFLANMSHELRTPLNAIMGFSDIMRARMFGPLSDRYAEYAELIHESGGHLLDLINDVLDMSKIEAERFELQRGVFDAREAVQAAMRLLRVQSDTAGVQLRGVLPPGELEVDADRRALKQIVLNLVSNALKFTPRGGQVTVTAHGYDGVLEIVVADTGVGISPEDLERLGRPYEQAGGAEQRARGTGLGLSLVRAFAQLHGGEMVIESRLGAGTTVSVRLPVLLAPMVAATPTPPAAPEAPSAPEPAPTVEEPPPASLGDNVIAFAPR
# Caulobacter vibrioides = experiment: Antibacterial activity against Caulobacter crescentus NA1000 after 24 hrs by broth dilution method; format: functional; details: NA1000, 24 h
# Bacillus subtilis = experiment: Antibacterial activity against Bacillus subtilis YB886 after 24 hrs by broth dilution method; format: functional; details: YB886, 24 h
# [6] = target: T1, Virulence sensor histidine kinase PhoQ (Salmonella typhimurium (strain LT2 / SGSC1412 / ATCC 700720)); experiment: Inhibition of recombinant Salmonella typhimurium N-terminal His6-SUMO-tagged DHp-catalytic domain PhoQ (257 to 487 residues) autophosphorylation expressed in Escherichia coli BL21 (DE3) at 800 uM preincubated for 10 mins followed by [gamma-32P]-ATP addition after 30 mins by phosphotransferase dot blot assay relative to control; set-up: scale not given: the % may be the effect or the level left; details: Salmonella enterica subsp. enterica serovar Typhimurium
# [7] = target: T1, Virulence sensor histidine kinase PhoQ (Salmonella typhimurium (strain LT2 / SGSC1412 / ATCC 700720)); experiment: Inhibition of recombinant Salmonella typhimurium N-terminal His6-SUMO-tagged PhoQ (257 to 487 residues) expressed in Escherichia coli BL21 (DE3) assessed as enzyme aggregation at 400 uM after 30 mins by native-PAGE analysis; details: Salmonella enterica subsp. enterica serovar Typhimurium
# [8] = target: T2, Cell cycle histidine kinase CckA (Caulobacter vibrioides); experiment: Inhibition of recombinant Caulobacter vibrioides cell cycle histidine kinase CckA deltaTM mutant DHp domain (70 to 691 residues) expressed in Escherichia coli at 250 uM in presence of varying levels of ATP measured every 60 secs for 2 hrs by PK/LDH enzyme coupled assay relative to control
# [9] = target: T4, Virulence sensor histidine kinase PhoQ (Salmonella typhimurium (strain LT2 / SGSC1412 / ATCC 700720), UniProt P0DM80); experiment: Inhibition of recombinant Salmonella typhimurium N-terminal His6-SUMO-tagged DHp-catalytic domain PhoQ (257 to 487 residues) autophosphorylation expressed in Escherichia coli BL21 (DE3) preincubated for 10 mins followed by [gamma-32P]-ATP addition after 30 mins by phosphotransferase dot blot assay; set-up: species or system Salmonella enterica subsp. enterica serovar Typhimurium
# T4 sequence (P0DM80 whole entry): T1 sequence (whole entry)
SMILES,IC50 [1] [µM],"hemolysis at 0.5 h, 500 µM [2] [%]",MIC (Escherichia coli) [µM],Activity [3] [%],ΔTm [4] [°C],Activity [5] [%],MIC (Caulobacter vibrioides) [µM],MIC (Bacillus subtilis) [µM],Activity [6] [%],inhibition [7],inhibition [8] [%],IC50 [9] [µM]
Cc1[nH]nc(-c2cc(Cl)c(O)cc2O)c1-c1ccccc1,17.5,1,,,,,,,,,,
COc1ccc(-c2c(-c3ccc(O)cc3O)n[nH]c2C)cc1,46,2,75 to 150,76,2.5,117,> 300,> 300,,,,
Oc1cc(O)c(-c2[nH]ncc2-c2ccc3c(c2)OCCO3)cc1Cl,,,37.5 to 75,63,3.3,117,150 to 225,112 to 225,48,inactive,,
Oc1cc(O)c(-c2n[nH]cc2-c2ccccc2)cc1Cl,33.6,0,37.5,63,3.5,92,150 to 225,225,,,,
Cc1n[nH]c(-c2cc(Cl)c(O)cc2O)c1-c1ccccc1,,,37.5 to 75,45,4.5,115,225,150,,,,
Oc1cc(O)c(-c2n[nH]cc2-c2ccc3c(c2)OCCO3)cc1Cl,32.3 to 44,1,,,,,,,,,,
COc1c(C)cnc(Cn2cnc3c(Cl)nc(N)nc32)c1C [BIIB021],,6,> 300,87,0.7,128,> 300,> 300,,,87,
COc1ccc(-c2c[nH]nc2-c2ccc(O)cc2O)cc1,56.9,3,37.5 to 112,87,3.5,85,> 300,> 300,,,,
Nc1ncnc2c1ncn2[C@@H]1O[C@H](COP(=O)(O)OP(=O)(O)NP(=O)(O)O)[C@@H](O)[C@H]1O,,,,,3.5,,,,,,,
CN(C)c1cc2c(cc1Sc1nc3c(N)nccc3n1CCNCC(C)(C)C)OCO2 [CUDC-305],,3,4.7 to 75,110,0.4,96,> 300,> 300,,,79,
CCc1cc(-c2n[nH]c(C)c2-c2ccc3c(c2)OCCO3)c(O)cc1O,28 to 30,14,,,,,,,,,,261
CC(C)NCCCn1c(Sc2cc3c(cc2I)OCO3)nc2c(N)ncnc21 [PU-H71],,1,75 to 225,103,0.5,122,> 300,> 300,,,61,
Cc1[nH]nc(-c2cc(Cl)c(O)cc2O)c1-c1ccc2c(c1)OCCO2,11.2 to 28,2,75,35,5.3,113,225,112 to 150,,inactive,,270
COc1ccc(-c2c[nH]nc2-c2cc(Cl)c(O)cc2O)cc1,32.7,0,37.5,62,4.2,112,225,150,,,,
CCNC(=O)c1noc(-c2cc(C(C)C)c(O)cc2O)c1-c1ccc(CN2CCOCC2)cc1 [LUMINESPIB],7.3 to 28,1,37.5 to 75,73,1.8,109,> 300,> 300,56,inactive,,
CCc1cc(-c2n[nH]c(C)c2-c2ccc(OC)cc2)c(O)cc1O,18.6,15,75,36,4.1,118,225,112,,,,
